Assay results taken from US7019135B2, “Anti-viral pyrimidine nucleoside analogues” (University College Cardiff Consultants Limited, priority 2000, dated 2006).
“Also recorded” adds a separate entry of the source.

Assays:
cytomegalo virus (CMV) = experiment: anti-CMV activity in tissue culture, summary in words of the table; format: cell-based; conditions: for anti-CMV activity (in words): summary of the table data, comparison with Ganciclovir
Experimental: Each of the products of Examples 1 to 9 was tested in vitro in tissue cultures for toxicity and for potent antiviral actions with respect to cytomegalo virus (CMV). EC50/μM CMV-AD169 is the drug concentration in μM required to reduce by 50% CMV strain AD169 induced cytopathicity in human embryonic lung fibroblast (HEL) cells measured 7 days post infection compared to untreated control. EC50/μM CMV Davis is the drug concentration in μM required to reduce by 50% CMV strain Davis induced cytopathicity in human embryonic lung fibroblast (HEL) cells measured 7 days post infection compared to untreated control.

CMV strain Davis = CMV strain Davis induced cytopathicity in HEL cells; format: cell-based, cytomegalo virus; conditions: Human betaherpesvirus 5, 168 h, 50% reduction of virus induced cytopathicity, 7 days post infection
Experimental: (§1) Each of the products of Examples 1 to 9 was tested in vitro in tissue cultures for toxicity and for potent antiviral actions with respect to cytomegalo virus (CMV). EC50/μM CMV Davis is the drug concentration in μM required to reduce by 50% CMV strain Davis induced cytopathicity in human embryonic lung fibroblast (HEL) cells measured 7 days post infection compared to untreated control. Further details of the methodology employed can be found in McGuigan et al. J. Med. Chem., 1999, 42, 4479-4484.

[1] = concentration required to reduce the cell number by 50%; format: cell-based; conditions: human, human embryonic lung cells; concentration reducing the cell number by 50%
Experimental: (§2) Each of the products of Examples 1 to 9 was tested in vitro in tissue cultures for toxicity and for potent antiviral actions with respect to cytomegalo virus (CMV). CC50/μM is the compound concentration required to reduce the cell number by 50%. Further details of the methodology employed can be found in McGuigan et al. J. Med. Chem., 1999, 42, 4479-4484.

CMV strain AD169 = CMV strain AD169 induced cytopathicity in HEL cells; format: cell-based, cytomegalo virus; conditions: Human betaherpesvirus 5, AD169, 168 h, 50% reduction of virus induced cytopathicity, 7 days post infection
Experimental: as §1, with “CMV-AD169” for “CMV Davis”, “AD169” for “Davis”

[2] = tested on: human embryonic lung cells; experiment: minimum cytotoxic concentration to human embryonic lung cells; format: cell-based; conditions: for MCC/μM: minimum cytotoxic concentration, human embryonic lung cells; for toxicity (in words): summary of the table data
Experimental: as §2, with “MCC/μM” for “CC50/μM”, “minimum cytotoxic” for “compound”, “concentration” for “concentration required”, “human embryonic lung cells.” for “reduce the cell number by 50%.”

CMV [3] = conditions: said in WO 98/49177; cited from earlier work
VZV YS strain = VZV YS strain induced cytopathicity in HEL cells; format: cell-based, Varicella zoster virus; conditions: Human alphaherpesvirus 3, 168 h, 50% reduction of VZV induced cytopathicity, 7 days post infection
Experimental: (§3) The compound of Example 3 wherein R is -nC10H21 was tested to assess its potency against VZV. Employing the equivalent EC50 assay as set out above, namely a measurement of the drug concentration required to reduce by 50% the VZV induced cytopathicity in human embryonic fibroblast (HEL) measured 7 days post infection, a concentration of 40 μM was found with respect to VZV OKA strain and a concentration of 20 μM was measured with respect to VZV YS strain.

VZV OKA strain = VZV OKA strain induced cytopathicity in HEL cells; format: cell-based, Varicella zoster virus; conditions: Human alphaherpesvirus 3, HEL, 168 h, read-out: EC50 VZV OKA strain
Experimental: as §3

VZV = conditions: in vitro; Can. J. Chem. 74, 1609, 1996; cited from earlier work
HSV-2 = conditions: in vitro; Can. J. Chem. 74, 1609, 1996; cited from earlier work
HSV-1 = conditions: in vitro; Can. J. Chem. 74, 1609, 1996; cited from earlier work
CMV [4] = conditions: in vitro; Can. J. Chem. 74, 1609, 1996; cited from earlier work
[5] = tested on: Varicella zoster virus (VZV); conditions: said in WO 98/49177; cited from earlier work

SMILES	EC50 (CMV strain Davis)	EC50 (CMV strain AD169)	anti-CMV activity (in words) (cytomegalo virus (CMV))	CC50 [1]	MCC/μM [2]	toxicity (in words) [2]	further results
CCCCCCCCCCCCc1cc2cn(C3CCC(CO)O3)c(=O)nc2o1 [Example 4, 3-[2′,3′-dideoxy-ribo-β-D-furanosyl]-6-dodecyl-2,3-dihydrofuro[2,3-d]pyrimidin-2-one]	5 µM	3.7 µM	at least comparable to that of the known drug Ganciclovir	> 200 µM	200 µM	acceptable level of toxicity	
O=c1nc2oc(CCCCCCCCCCl)cc2cn1C1CC(O)C(CO)O1 (centres unmarked) [6-(9-chlorononyl)-3-(4-hydroxy-5-(hydroxymethyl)tetrahydro-2-furanyl)-2,3-dihydrofuro[2,3,-d] pyrimidin-2-one]							anti-CMV activity (in words) (CMV [3]): demonstrate anti-CMV activity
O=c1nc2oc(CCCCCCCCCOCCCCCl)cc2cn1C1CCC(CO)O1 [Example 9, 3-(2′-3′-Dideoxy-β-D-ribofuranosyl)-6-[9-(4-chlorobutoxy)nonyl]-2,3-dihydrofuro[2,3-d]pyrimidin-2-one]	1 µM	2.6 µM	potent anti-CMV activity	> 200 µM	20 µM	toxicity greater than any of the compounds of Examples 1, 3, 4, 5 and 6	
CCCCCCCCCCc1cc2cn(C3CCC(CO)O3)c(=O)nc2o1 [Example 3, 3-[2′,3′-dideoxy-ribo-β-D-furanosyl]-6-decyl-2,3-dihydrofuro[2,3-d]pyrimidin-2-one]	3.2 µM	2.6 µM	at least comparable to that of the known drug Ganciclovir	> 200 µM	>200 µM	acceptable level of toxicity	activity against CMV compared with VZV (in words) (cytomegalo virus (CMV); CMV versus VZV EC50): substantially more active against CMV, than against VZV; EC50 (VZV YS strain): 20 µM; EC50 (VZV OKA strain): 40 µM
CCCCCCCCc1cc2cn(C3CCC(CO)O3)c(=O)nc2o1 [Example 2, 3-[2′3′-dideoxy-ribo-β-D-furanosyl]-6-octyl-2,3-dihydrofuro[2,3-d]pyrimidin-2-one]	2.4 µM	1.5 µM	potent anti-CMV activity	112 µM	20 µM	toxicity greater than any of the compounds of Examples 1, 3, 4, 5 and 6	
CCCCCCc1cc2cn(C3CCC(CO)O3)c(=O)nc2o1 [Example 1, 3-[2′,3′-dideoxy-ribo-β-D-furanosyl]-6-hexyl-2,3-dihydrofuro[2,3-d]pyrimidin-2-one]	> 50 µM	32 µM		143 µM	200 µM		
O=c1nc2occc2cn1C1CC(O)C(CO)O1 (centres unmarked)							activity against VZV (in words) (VZV): inactive; activity against HSV-2 (in words) (HSV-2): inactive; activity against HSV-1 (in words) (HSV-1): inactive; activity against CMV (in words) (CMV [4]): inactive
CCCCCCCCCCc1cc2cn([C@H]3C[C@H](O)[C@@H](CO)O3)c(=O)nc2o1 [3-(2′-deoxy-β-D-ribofuranosyl)-6-decyl-2,3-dihydrofuro[2,3-d]pyrimidin-2-one]							anti-Varicella zoster virus (VZV) activity (in words) [5]: potent

Second part, led by results:

EC50 (CMV strain Davis)	EC50 (CMV strain AD169)	SMILES	anti-CMV activity (in words) (cytomegalo virus (CMV))	CC50 [1]	MCC/μM [2]	toxicity (in words) [2]	further results
40 µM	25 µM	CCCCCCCCCCCCCCc1cc2cn(C3CCC(CO)O3)c(=O)nc2o1 [Example 5, 3-[2′,3′-dideoxy-ribo-β-D-furanosyl]-6-tetradecyl-2,3-dihydrofuro[2,3-d]pyrimidin-2-one]		> 200 µM	200 µM		
1.2 µM	1.4 µM	CCCCCCCCCCCc1cc2cn(C3CCC(CO)O3)c(=O)nc2o1 [Example 7, 3-[2′,3′-dideoxy-ribo-β-D-furanosyl]-6-undecyl-2,3-dihydrofuro[2,3-d]pyrimidin-2-one]	potent anti-CMV activity	> 200 µM	50 µM	toxicity greater than any of the compounds of Examples 1, 3, 4, 5 and 6	
1 µM	1.2 µM	CCCCOCCCCCCCCCc1cc2cn(C3CCC(CO)O3)c(=O)nc2o1 [Example 8, 3-(2′-3′-Dideoxy-β-D-ribofuranosyl)-6-[9-butyloxynonyl]-2,3-dihydrofuro[2,3-d]pyrimidin-2-one]	potent anti-CMV activity	200 µM	5 µM	toxicity greater than any of the compounds of Examples 1, 3, 4, 5 and 6	
1.3 µM	1.2 µM	CCCCCCCCCc1cc2cn(C3CCC(CO)O3)c(=O)nc2o1 [Example 6, 3-[2′,3′-dideoxy-ribo-β-D-furanosyl]-6-nonyl-2,3-dihydrofuro[2,3-d]pyrimidin-2-one]	potent anti-CMV activity; also recorded: at least comparable to that of the known drug Ganciclovir	> 200 µM	200 µM	acceptable level of toxicity	
3.4 µM	2.6 µM	Nc1nc(O)c2ncn(COC(CO)CO)c2n1 [Ganciclovir, reference compound]			>150 µM		
